For data set [1], the system named is Mus musculus. Description: Toxicity in Mus musculus Swiss albino (mouse) assessed as abnormal changes in skin at 500 to 2000 mg/kg, po measured after 14 days. It is filed as organism-based. Also noted: dose 500-2000 mg/kg, route oral. To be noted: in vivo, 336 h.
The subject of data set [2] is Mus musculus. Description: Toxicity in Mus musculus Swiss albino (mouse) assessed as mortality at 500 to 2000 mg/kg, po measured after 14 days. It is filed as organism-based. Also noted: dose 500-2000 mg/kg, route oral. To be noted: in vivo, 336 h.
Data set [3] concerns Rattus norvegicus. Description: Anti-inflammatory activity in Rattus norvegicus Wistar (rat) assessed as inhibition of carrageenan-induced paw edema at 160 mg/kg, po administered 30 min prior to carrageenan challenge measured at 4 hr relative to control. It is filed as functional. In general terms: In the carrageenan paw model, swelling and tenderness develop within hours.
Data set [4] relates to Mus musculus. Nature of the data set: Toxicity in Mus musculus Swiss albino (mouse) assessed as abnormal changes in fur at 500 to 2000 mg/kg, po measured after 14 days. Conditions: in vivo, 336 h. Also noted: dose 500-2000 mg/kg, route oral. It is filed as organism-based.
For data set [5], the system named is Mus musculus. Nature of the data set: Toxicity in Mus musculus Swiss albino (mouse) assessed as changes in behavioral pattern at 500 to 2000 mg/kg, po measured after 14 days. It is filed as organism-based. Set-up: dose 500-2000 mg/kg, route oral. To be noted: in vivo, 336 h.
Data set [6] relates to Mus musculus. Nature of the data set: Analgesic activity in Mus musculus Swiss albino (mouse) assessed as inhibition of acetic acid-induced writhing at 160 mg/kg, po administered 30 min prior challenge measured after 5 min of challenge for next 30 min relative to control. The data set is classed as functional.
Data set [7] concerns Mus musculus. Nature of the data set: Toxicity in Mus musculus Swiss albino (mouse) assessed as abnormal changes in eyes at 500 to 2000 mg/kg, po measured after 14 days. Also noted: dose 500-2000 mg/kg, route oral. The data set is classed as organism-based. Conditions: in vivo, 336 h.
The subject of data set [8] is Mus musculus. Description: Analgesic activity in Mus musculus Swiss albino (mouse) assessed as inhibition of acetic acid-induced writhing at 10 mg/kg, po administered 30 min prior challenge measured after 5 min of challenge for next 30 min relative to control. The data set is classed as functional. A general note: An intraperitoneal irritant provokes the stretching counted in writhing tests.

In data set [9] the test system is Rattus norvegicus. Nature of the data set: Anti-inflammatory activity in Rattus norvegicus Wistar (rat) assessed as inhibition of carrageenan-induced paw edema at 10 mg/kg, po administered 30 min prior to carrageenan challenge measured at 4 hr relative to control. The data set is classed as functional.

What is called inhibition in vivo is the percentage by which the read-out fell short of the control.

For the compound `COc1ccc(C(=O)/C=C/c2ccc(O)c(OC)c2)cc1`, the Activity entry in the data set on Mus musculus [1], with Mus musculus [2], in the data set with Mus musculus [4], in the data set with Mus musculus [5] and in the data set on Mus musculus [7] was “Non-toxic” each time. For the same compound, the inhibition in vivo at 160 mg/kg in the data set with Rattus norvegicus [3] is 80%; in the data set with Mus musculus [6], 89.6%.
With `COc1ccc(/C=C/C(=O)c2ccc(Br)cc2)cc1`, the Activity result in the data set with Mus musculus [1], with Mus musculus [2], with Mus musculus [4], in the data set with Mus musculus [5] and with Mus musculus [7] was “Non-toxic” throughout. Besides, the inhibition in vivo at 160 mg/kg in the data set on Rattus norvegicus [3] is 67.7%; in the data set with Mus musculus [6] it was 70.8%.
As to `COc1ccc(C(=O)/C=C/c2ccc(N(C)C)cc2)cc1`, the Activity result in the data set on Mus musculus [1], in the data set on Mus musculus [2], in the data set with Mus musculus [4], in the data set with Mus musculus [5] and in the data set on Mus musculus [7] was “Non-toxic” throughout. The inhibition in vivo at 160 mg/kg in the data set with Rattus norvegicus [3] was 69.8%; in the data set with Mus musculus [6], 47.9%.
Regarding `CN(C)c1ccc(/C=C/C(=O)c2ccc(Br)cc2)cc1`, the Activity result in the data set on Mus musculus [1], in the data set with Mus musculus [2], in the data set with Mus musculus [4], with Mus musculus [5] and with Mus musculus [7] was “Non-toxic” each time. Besides, the inhibition in vivo at 160 mg/kg turned out to be 54.5% with Rattus norvegicus [3] and 31.9% with Mus musculus [6].
Consider `COc1ccc(/C=C/C(=O)c2ccc(-c3ccccc3)cc2)cc1`, for which the Activity entry with Mus musculus [1], in the data set with Mus musculus [2], in the data set with Mus musculus [4], in the data set on Mus musculus [5] and with Mus musculus [7] was “Non-toxic” in each case. For the same compound, the inhibition in vivo at 160 mg/kg came to 74.8% in the data set with Rattus norvegicus [3] and 83.3% with Mus musculus [6].
Take `O=C(/C=C/c1ccccc1)c1ccc(-c2ccccc2)cc1`: the Activity entry in the data set on Mus musculus [1], with Mus musculus [2], with Mus musculus [4], in the data set on Mus musculus [5] and in the data set with Mus musculus [7] was “Non-toxic” throughout. The figures for the inhibition in vivo at 160 mg/kg in the data set with Rattus norvegicus [3] and in the data set on Mus musculus [6] were 68.4% and 71.5%, respectively.
Turning to `COc1cc(/C=C/C(=O)c2ccc(-c3ccccc3)cc2)cc(OC)c1OC`, the Activity result in the data set on Mus musculus [1], with Mus musculus [2], in the data set on Mus musculus [4], with Mus musculus [5] and in the data set with Mus musculus [7] was “Non-toxic” throughout. For the same compound, the figures for the inhibition in vivo at 160 mg/kg in the data set with Rattus norvegicus [3] and in the data set with Mus musculus [6] were 78.7% and 85.4%, respectively.
As to `O=C(/C=C/c1ccccc1Cl)c1ccc(-c2ccccc2)cc1`, the Activity result in the data set with Mus musculus [1], in the data set with Mus musculus [2], with Mus musculus [4], with Mus musculus [5] and in the data set with Mus musculus [7] was “Non-toxic” throughout. Moreover, the inhibition in vivo at 160 mg/kg in the data set on Rattus norvegicus [3] was 61.9%; in the data set with Mus musculus [6], 85.1%.
`O=C(/C=C/c1ccc(Cl)cc1)c1ccc(-c2ccccc2)cc1`: the Activity result in the data set with Mus musculus [1], in the data set on Mus musculus [2], in the data set with Mus musculus [4], in the data set on Mus musculus [5] and in the data set on Mus musculus [7] was “Non-toxic” each time. Further, the inhibition in vivo at 160 mg/kg in the data set on Rattus norvegicus [3] is 52.9%; in the data set with Mus musculus [6], 74.3%.
In the case of `O=C(/C=C/c1ccccc1[N+](=O)[O-])c1ccc(-c2ccccc2)cc1`, the Activity entry in the data set with Mus musculus [1], with Mus musculus [2], in the data set with Mus musculus [4], in the data set on Mus musculus [5] and with Mus musculus [7] was “Non-toxic” in each case. Moreover, the inhibition in vivo at 160 mg/kg in the data set on Rattus norvegicus [3] came out at 45.2%; with Mus musculus [6], 40.3%.
Turning to `CN(C)c1ccc(/C=C/C(=O)c2ccc(-c3ccccc3)cc2)cc1`, the Activity entry with Mus musculus [1], with Mus musculus [2], with Mus musculus [4], with Mus musculus [5] and in the data set on Mus musculus [7] was “Non-toxic” each time. In addition, the figures for the inhibition in vivo at 160 mg/kg with Rattus norvegicus [3] and in the data set with Mus musculus [6] were 58.7% and 72.9%, respectively.
In the case of `O=C(/C=C/c1ccccc1O)c1ccc(-c2ccccc2)cc1`, the Activity entry in the data set on Mus musculus [1], with Mus musculus [2], in the data set on Mus musculus [4], with Mus musculus [5] and with Mus musculus [7] was “Non-toxic” each time. The inhibition in vivo at 160 mg/kg amounted to 80.6% with Rattus norvegicus [3] and 75.7% in the data set on Mus musculus [6].
Take `COc1cc(/C=C/C(=O)c2ccc(-c3ccccc3)cc2)cc(OC)c1`: the Activity result with Mus musculus [1], in the data set with Mus musculus [2], in the data set with Mus musculus [4], with Mus musculus [5] and with Mus musculus [7] was “Non-toxic” each time. In addition, the inhibition in vivo at 160 mg/kg stood at 63.2% in the data set on Rattus norvegicus [3] and 84.7% in the data set on Mus musculus [6].
`O=C(/C=C/c1ccc(O)cc1)c1ccc(-c2ccccc2)cc1`: the Activity entry in the data set with Mus musculus [1], in the data set on Mus musculus [2], in the data set on Mus musculus [4], with Mus musculus [5] and in the data set with Mus musculus [7] was “Non-toxic” each time. Further, the inhibition in vivo at 160 mg/kg was 74.8% in the data set on Rattus norvegicus [3] and 66.7% with Mus musculus [6].
For `O=C(/C=C/c1ccc(F)cc1)c1ccc(-c2ccccc2)cc1`, the Activity result in the data set with Mus musculus [1], in the data set with Mus musculus [2], with Mus musculus [4], with Mus musculus [5] and with Mus musculus [7] was “Non-toxic” in each case. Further, the values for the inhibition in vivo at 160 mg/kg with Rattus norvegicus [3] and in the data set with Mus musculus [6] were 76.8% and 56.5%, respectively.
As for `O=C(/C=C/c1ccoc1)c1ccc(-c2ccccc2)cc1`, the Activity result in the data set on Mus musculus [1], in the data set with Mus musculus [2], with Mus musculus [4], in the data set on Mus musculus [5] and in the data set on Mus musculus [7] was “Non-toxic” each time. Besides, the results for the inhibition in vivo at 160 mg/kg in the data set on Rattus norvegicus [3] and with Mus musculus [6] were 52.9% and 51.4%, respectively.
Turning to `COc1ccc(C(=O)/C=C/c2ccccc2O)cc1`, the Activity entry with Mus musculus [1], with Mus musculus [2], in the data set with Mus musculus [4], in the data set with Mus musculus [5] and with Mus musculus [7] was “Non-toxic” each time. Further, the inhibition in vivo at 160 mg/kg came out at 76.1% in the data set on Rattus norvegicus [3] and 50.7% in the data set on Mus musculus [6].
Regarding `COc1ccc(C(=O)/C=C/c2ccc(Cl)cc2)cc1`, the Activity result with Mus musculus [1], with Mus musculus [2], in the data set on Mus musculus [4], in the data set on Mus musculus [5] and in the data set with Mus musculus [7] was “Non-toxic” in each case. Further, the inhibition in vivo at 160 mg/kg with Rattus norvegicus [3] was found to be 77.6%; with Mus musculus [6], 48.6%.
Regarding `COc1ccc(C(=O)/C=C/c2ccccc2)cc1` [4'-METHOXYCHALCONE], the Activity result in the data set with Mus musculus [1], with Mus musculus [2], with Mus musculus [4], in the data set with Mus musculus [5] and in the data set with Mus musculus [7] was “Non-toxic” throughout. Also, the inhibition in vivo at 160 mg/kg in the data set on Rattus norvegicus [3] came out at 69.8%; with Mus musculus [6], 25.7%.
Turning to `COc1ccc(/C=C/C(=O)c2ccc(OC)cc2)cc1` [4,4'-DIMETHOXYCHALCONE], the Activity entry with Mus musculus [1], in the data set with Mus musculus [2], in the data set with Mus musculus [4], in the data set with Mus musculus [5] and with Mus musculus [7] was “Non-toxic” throughout. Besides, the inhibition in vivo at 160 mg/kg was 72.9% with Rattus norvegicus [3] and 87.5% in the data set with Mus musculus [6].
For `CC(=O)Oc1ccccc1C(=O)O` [ASPIRIN], the inhibition in vivo at 10 mg/kg in the data set with Mus musculus [8] turned out to be 88.9%.
With `COc1ccc2c(c1)c(CC(=O)O)c(C)n2C(=O)c1ccc(Cl)cc1` [INDOMETHACIN], the inhibition in vivo at 10 mg/kg with Rattus norvegicus [9] worked out at 79.3%.
